# Measured values reported in patent US20260035384A1, “COMPOUND CONTAINING CYCLOHEXYL” (CHIA TAI TIANQING PHARMACEUTICAL GROUP CO., LTD., priority 2022, published 2026).
# Test system: VCaP cells
# Assay: Assay on inhibitory activity for VCaP cell proliferation (CCK-8)
# Assay type: cell-based
# Settings: 168 h incubation
# Procedure: (§1) 2.1 Assay on inhibitory activity for VCaP cell proliferation VCaP cells in a good growth state were taken, washed with PBS, digested with pancreatin, and added with 5% CSS—FBS phenol red-free DMEM complete medium to terminate the digestion. The cells were collected by using a centrifuge tube, adjusted to a cell density of 1×10^5 cells/mL, and seeded in a 96-well plate (100 μL/well). Meanwhile, compounds were added using a nanoliter pipettor such that the final concentrations of the compounds were 10000 nM-0.61 nM. Two duplicate wells were set for each concentration, and meanwhile, a control was set. After another 168 h of incubation in the cell incubator, the detection reagent CCK-8 (manufacturer: Dojindo, 10 μL/well) was added.
row,IC50 [nM],SMILES
1,< 100,N#Cc1ccc(O[C@H]2CC[C@H](NC(=O)c3cnc(C4CCN(C5CN(CC6Cc7ccc8c(C9CCC(=O)NC9=O)coc8c7C6)C5)CC4)nc3)CC2)cc1Cl (stereo partly drawn) [Compound 111]
2,< 1000,N#Cc1ccc(O[C@H]2CC[C@H](NC(=O)c3cnc(C4CCN(C5CN(CC6Cc7ccc8c(C9CCC(=O)NC9=O)coc8c7C6)C5)CC4)nc3)CC2)cc1Cl (stereo partly drawn) [Compound 112]
3,< 1000,N#Cc1ccc(O[C@H]2CC[C@H](NC(=O)c3cnc(N4CCN(CC5Cc6ccc7c(C8CCC(=O)NC8=O)noc7c6C5)CC4)nc3)CC2)cc1Cl (stereo partly drawn) [Compound 124]

# Same assay, conditions: Homo sapiens, 168 h incubation
row,SMILES,IC50 [nM]
1,CN(c1ccc(C#N)c(Cl)c1)[C@H]1CC[C@H](NC(=O)c2ccc(N3CCC(CN4CCc5ccc6c(C7CCC(=O)NC7=O)noc6c5CC4)CC3)cc2)CC1 (stereo partly drawn) [Compound 59],< 10

# Same assay, conditions: Homo sapiens, VCaP, 168 h, 168 h incubation
row,IC50 [nM],SMILES
1,< 100,N#Cc1ccc(O[C@H]2CC[C@H](NC(=O)c3ccc(N4CCN(CC5Cc6ccc7c(C8CCC(=O)NC8=O)coc7c6C5)CC4)nn3)CC2)cc1Cl (stereo partly drawn) [Compound 28]
2,< 10,N#Cc1ccc(O[C@H]2CC[C@H](NC(=O)c3ccc(N4CCC(CN5CCC(n6ccc7c8c(C9CCC(=O)NC9=O)noc8ccc76)CC5)CC4)nn3)CC2)cc1Cl (stereo partly drawn) [Compound 41]
3,< 10,N#Cc1ccc(O[C@H]2CC[C@H](NC(=O)c3ccc(N4CCC(CN5CC(n6ncc7c8c(C9CCC(=O)NC9=O)noc8ccc76)C5)CC4)nn3)CC2)cc1Cl (stereo partly drawn) [Compound 42]
4,< 10,N#Cc1ccc(O[C@H]2CC[C@H](NC(=O)c3ccc(C4CCN(C5CC(n6ncc7c8c(C9CCC(=O)NC9=O)noc8ccc76)C5)CC4)nn3)CC2)cc1Cl (stereo partly drawn) [Compound 46]
5,< 10,N#Cc1ccc(O[C@H]2CC[C@H](NC(=O)c3ccc(N4CCC(N5CC(CN6CCc7ccc8c(C9CCC(=O)NC9=O)noc8c7CC6)C5)CC4)nn3)CC2)cc1Cl (stereo partly drawn) [Compound 93]
6,< 100,N#Cc1ccc(O[C@H]2CC[C@H](NC(=O)c3ccc(N4CCC(N5CC(CN6CCc7ccc8c(C9CCC(=O)NC9=O)coc8c7CC6)C5)CC4)nn3)CC2)cc1Cl (stereo partly drawn) [Compound 99]
7,< 10,N#Cc1ccc(O[C@H]2CC[C@H](NC(=O)c3ccc(N4CCC(N5CC(CN6Cc7cc8onc(C9CCC(=O)NC9=O)c8cc7C6)C5)CC4)nn3)CC2)cc1Cl (stereo partly drawn) [Compound 101]
8,< 10,N#Cc1ccc(O[C@H]2CC[C@H](NC(=O)c3cnc(N4CCC(N5CC(CN6Cc7ccc8c(C9CCC(=O)NC9=O)coc8c7C6)C5)CC4)nc3)CC2)cc1Cl (stereo partly drawn) [Compound 103]
9,< 10,N#Cc1ccc(O[C@H]2CC[C@H](NC(=O)c3cnc(N4CCC(N5CC(CN6CCc7ccc8c(C9CCC(=O)NC9=O)coc8c7C6)C5)CC4)nc3)CC2)cc1Cl (stereo partly drawn) [Compound 104]
10,< 10,N#Cc1ccc(O[C@H]2CC[C@H](NC(=O)c3cnc(N4CCC(N5CC(CN6CCc7c(ccc8c(C9CCC(=O)NC9=O)coc78)C6)C5)CC4)nc3)CC2)cc1Cl (stereo partly drawn) [Compound 105]
11,< 100,N#Cc1ccc(O[C@H]2CC[C@H](NC(=O)c3cnc(N4CCC(N5CC(CN6CCc7ccc8c(C9CCC(=O)NC9=O)coc8c7CC6)C5)CC4)nc3)CC2)cc1Cl (stereo partly drawn) [Compound 106]
12,< 1000,N#Cc1ccc(O[C@H]2CC[C@H](NC(=O)c3cnc(N4CCC(CN5CCc6ccc7c(C8CCC(=O)NC8=O)noc7c6C5)CC4)nc3)CC2)cc1Cl (stereo partly drawn) [Compound 120]
13,< 1000,N#Cc1ccc(O[C@H]2CC[C@H](NC(=O)c3cnc(C4CCN(CC5Cc6ccc7c(C8CCC(=O)NC8=O)noc7c6C5)CC4)nc3)CC2)cc1Cl (stereo partly drawn) [Compound 125]
14,< 100,N#Cc1ccc(O[C@H]2CC[C@H](NC(=O)c3cnc(C4=CCN(CC5Cc6ccc7c(C8CCC(=O)NC8=O)noc7c6C5)CC4)nc3)CC2)cc1Cl (stereo partly drawn) [Compound 127]

row,SMILES,IC50 [nM]
1,CN(c1ccc(C#N)c(Cl)c1)[C@H]1CC[C@H](NC(=O)c2ccc(C3CCN(CC4Cc5ccc6c(C7CCC(=O)NC7=O)noc6c5C4)CC3)cc2)CC1 (stereo partly drawn) [Compound 68],< 10
2,CN(c1ccc(C#N)c(Cl)c1)[C@H]1CC[C@H](NC(=O)c2cnc(N3CC(CN4CCc5c(ccc6c(C7CCC(=O)NC7=O)noc56)C4)C3)nc2)CC1 (stereo partly drawn) [Compound 114],< 100
3,CN(c1ccc(C#N)c(Cl)c1)[C@H]1CC[C@H](NC(=O)c2cnc(N3CCC(CN4Cc5ccc6c(C7CCC(=O)NC7=O)noc6c5C4)CC3)nc2)CC1 (stereo partly drawn) [Compound 115],< 1000

# Test system: LNCaP cells
# Assay: Assay on inhibitory activity for LNCaP cell proliferation (CCK-8)
# Assay type: cell-based
# Settings: 168 h incubation
# Procedure: as §1, with “LNCaP” for “2.1 Assay on inhibitory activity for VCaP cell proliferation VCaP”, “2%” for “5%”, “1640” for “DMEM”
row,IC50 [nM],SMILES
1,< 1000,N#Cc1ccc(O[C@H]2CC[C@H](NC(=O)c3ccc(C4CCN(CC5Cc6ccc7c(C8CCC(=O)NC8=O)noc7c6C5)CC4)nn3)CC2)cc1Cl (stereo partly drawn) [Compound 31]
2,< 1000,N#Cc1ccc(O[C@H]2CC[C@H](NC(=O)c3ccc(C4CCN(CC5Cc6ccc7c(C8CCC(=O)NC8=O)coc7c6C5)CC4)nn3)CC2)cc1Cl (stereo partly drawn) [Compound 33]
3,< 1000,N#Cc1ccc(O[C@H]2CC[C@H](NC(=O)c3cnc(C4CCN(C5CN(CC6Cc7ccc8c(C9CCC(=O)NC9=O)coc8c7C6)C5)CC4)nc3)CC2)cc1Cl (stereo partly drawn) [Compound 112]

# Same assay, conditions: Homo sapiens, 168 h incubation
row,IC50 [nM],SMILES
1,< 1000,"N#Cc1ccc(O[C@H]2CC[C@H](NC(=O)c3ccc(C4CCN(C[C@H]5C[C@@H](n6ccc7c8c(C9CCC(=O)NC9=O)noc8ccc76)C5)CC4)nn3)CC2)cc1Cl (single isomer, unassigned) [Compound 51]"
2,< 1000,"N#Cc1ccc(O[C@H]2CC[C@H](NC(=O)c3ccc(C4CCN(C[C@H]5C[C@H](n6ccc7c8c(C9CCC(=O)NC9=O)noc8ccc76)C5)CC4)nn3)CC2)cc1Cl (single isomer, unassigned) [Compound 52]"
3,< 1000,N#Cc1ccc(O[C@H]2CC[C@H](NC(=O)c3ccc(N4CCC(N5CCc6ccc7c(C8CCC(=O)NC8=O)noc7c6CC5)CC4)nn3)CC2)cc1Cl (stereo partly drawn) [Compound 23]
4,< 1000,N#Cc1ccc(O[C@H]2CC[C@H](NC(=O)c3ccc(N4CCN(CC5Cc6ccc7c(C8CCC(=O)NC8=O)coc7c6C5)CC4)nn3)CC2)cc1Cl (stereo partly drawn) [Compound 28]
5,< 1000,N#Cc1ccc(O[C@H]2CC[C@H](NC(=O)c3ccc(N4CCN(CC5Cc6cc(C7CCC(=O)NC7=O)c7ccoc7c6C5)CC4)nn3)CC2)cc1Cl (stereo partly drawn) [Compound 29]
6,< 1000,N#Cc1ccc(O[C@H]2CC[C@H](NC(=O)c3ccc(C4CCN(CC5Cc6ccc7c(C8CCC(=O)NC8=O)noc7c6C5)CC4)nn3)CC2)cc1Cl (stereo partly drawn) [Compound 30]
7,< 1000,N#Cc1ccc(O[C@H]2CC[C@H](NC(=O)c3ccc(C4CCN(CC5Cc6ccc7c(C8CCC(=O)NC8=O)coc7c6C5)CC4)nn3)CC2)cc1Cl (stereo partly drawn) [Compound 32]
8,< 1000,N#Cc1ccc(O[C@H]2CC[C@H](NC(=O)c3ccc(N4CCC(N5CC(n6ccc7c8c(C9CCC(=O)NC9=O)noc8ccc76)C5)CC4)nn3)CC2)cc1Cl (stereo partly drawn) [Compound 39]
9,< 1000,N#Cc1ccc(O[C@H]2CC[C@H](NC(=O)c3ccc(N4CCC(CN5CCC(n6ccc7c8c(C9CCC(=O)NC9=O)noc8ccc76)CC5)CC4)nn3)CC2)cc1Cl (stereo partly drawn) [Compound 41]
10,< 1000,N#Cc1ccc(O[C@H]2CC[C@H](NC(=O)c3ccc(N4CCC(N5CC(n6ncc7c8c(C9CCC(=O)NC9=O)noc8ccc76)C5)CC4)nn3)CC2)cc1Cl (stereo partly drawn) [Compound 43]
11,< 1000,N#Cc1ccc(O[C@H]2CC[C@H](NC(=O)c3ccc(N4CCC(CN5CC(n6cc7c(ccc8onc(C9CCC(=O)NC9=O)c87)n6)C5)CC4)nn3)CC2)cc1Cl (stereo partly drawn) [Compound 44]
12,< 1000,N#Cc1ccc(O[C@H]2CC[C@H](NC(=O)c3ccc(C4CCN(C5CC(n6ncc7c8c(C9CCC(=O)NC9=O)noc8ccc76)C5)CC4)nn3)CC2)cc1Cl (stereo partly drawn) [Compound 46]
13,< 1000,N#Cc1ccc(O[C@H]2CC[C@H](NC(=O)c3ccc(C4CCN([C@H]5C[C@@H](n6ccc7c8c(C9CCC(=O)NC9=O)noc8ccc76)C5)CC4)nn3)CC2)cc1Cl (stereo partly drawn) [Compound 49]
14,< 1000,N#Cc1ccc(O[C@H]2CC[C@H](NC(=O)c3ccc(C4CCN([C@H]5C[C@H](n6ccc7c8c(C9CCC(=O)NC9=O)noc8ccc76)C5)CC4)nn3)CC2)cc1Cl (stereo partly drawn) [Compound 50]
15,< 1000,N#Cc1ccc(O[C@H]2CC[C@H](NC(=O)c3ccc(C4CCN([C@H]5CC[C@@H](n6ccc7c8c(C9CCC(=O)NC9=O)noc8ccc76)CC5)CC4)nn3)CC2)cc1Cl (stereo partly drawn) [Compound 54]
16,< 1000,N#Cc1ccc(O[C@H]2CC[C@H](NC(=O)c3ccc(C4CCN([C@H]5CC[C@H](n6ccc7c8c(C9CCC(=O)NC9=O)noc8ccc76)CC5)CC4)nn3)CC2)cc1Cl (stereo partly drawn) [Compound 55]
17,< 1000,N#Cc1ccc(O[C@H]2CC[C@H](NC(=O)c3ccc(N4CCC(N5CC(CN6CCc7ccc8c(C9CCC(=O)NC9=O)noc8c7CC6)C5)CC4)nn3)CC2)cc1Cl (stereo partly drawn) [Compound 93]
18,< 1000,N#Cc1ccc(O[C@H]2CC[C@H](NC(=O)c3ccc(N4CCC(N5CC(CN6CCc7ccc8c(C9CCC(=O)NC9=O)coc8c7CC6)C5)CC4)nn3)CC2)cc1Cl (stereo partly drawn) [Compound 99]
19,< 1000,N#Cc1ccc(O[C@H]2CC[C@H](NC(=O)c3ccc(N4CCC(CN5Cc6cc7onc(C8CCC(=O)NC8=O)c7cc6C5)CC4)nn3)CC2)cc1Cl (stereo partly drawn) [Compound 100]
20,< 1000,N#Cc1ccc(O[C@H]2CC[C@H](NC(=O)c3cnc(C4CCN(C5CN(CC6Cc7ccc8c(C9CCC(=O)NC9=O)coc8c7C6)C5)CC4)nc3)CC2)cc1Cl (stereo partly drawn) [Compound 111]
21,< 1000,N#Cc1ccc(O[C@H]2CC[C@H](NC(=O)c3cnc(N4CCC(CN5CCc6ccc7c(C8CCC(=O)NC8=O)noc7c6C5)CC4)nc3)CC2)cc1Cl (stereo partly drawn) [Compound 120]
22,< 1000,N#Cc1ccc(O[C@H]2CC[C@H](NC(=O)c3cnc(N4CCC(CN5CCc6ccc7c(C8CCC(=O)NC8=O)coc7c6CC5)CC4)nc3)CC2)cc1Cl (stereo partly drawn) [Compound 135]
23,< 1000,N#Cc1ccc(O[C@H]2CC[C@H](NC(=O)c3cnc(N4CCC(CN5Cc6ccc7c(N8CCC(=O)NC8=O)coc7c6C5)CC4)nc3)CC2)cc1Cl [Compound 138]
24,< 1000,N#Cc1ccc(O[C@H]2CC[C@H](NC(=O)c3cnc(N4CCC(CN5CCc6ccc7c(N8CCC(=O)NC8=O)coc7c6CC5)CC4)nc3)CC2)cc1Cl [Compound 141]
25,< 1000,N#Cc1ccc(O[C@H]2CC[C@H](NC(=O)c3cnc(N4CC[C@H](CN5CCc6c(ccc7c(C8CCC(=O)NC8=O)noc67)C5)C4)nc3)CC2)cc1Cl (stereo partly drawn) [Compound 143]
26,< 1000,N#Cc1ccc(O[C@H]2CC[C@H](NC(=O)c3cnc(N4CC[C@@H](CN5CCc6c(ccc7c(C8CCC(=O)NC8=O)noc67)C5)C4)nc3)CC2)cc1Cl (stereo partly drawn) [Compound 144]

row,SMILES,IC50 [nM]
1,N#Cc1ccc(O[C@H]2CC[C@H](NC(=O)c3ccc(N4CCC(CN5CC(n6ccc7c8c(C9CCC(=O)NC9=O)noc8ccc76)C5)CC4)nn3)CC2)cc1Cl (stereo partly drawn) [Compound 38],< 1000
2,N#Cc1ccc(O[C@H]2CC[C@H](NC(=O)c3ccc(N4CCC(N5CCC(n6ccc7c8c(C9CCC(=O)NC9=O)noc8ccc76)CC5)CC4)nn3)CC2)cc1Cl (stereo partly drawn) [Compound 40],< 1000
3,CN(c1ccc(C#N)c(Cl)c1)[C@H]1CC[C@H](NC(=O)c2cnc(N3CC(CN4CCc5c(ccc6c(C7CCC(=O)NC7=O)noc56)C4)C3)nc2)CC1 (stereo partly drawn) [Compound 114],< 1000
4,CN(c1ccc(C#N)c(Cl)c1)[C@H]1CC[C@H](NC(=O)c2cnc(N3CCC(CN4CCc5ccc6c(C7CCC(=O)NC7=O)noc6c5C4)CC3)nc2)CC1 (stereo partly drawn) [Compound 116],< 1000
